Data reported in ChEMBL document CHEMBL4371047, “Effect of α-Methoxy Substitution on the Anti-HIV Activity of Dihydropyrimidin-4(3 H)-ones” (J Med Chem, 2019).

What was measured:
[1] = test system: Human immunodeficiency virus type 1 reverse transcriptase (Human immunodeficiency virus 1), Q72547 [K103N]
Description: Inhibition of recombinant HIV-1 His-tagged reverse transcriptase p66/p51 K103N mutant expressed in Escherichia coli assessed as reduction in [3H]dTTP incorporation using poly(rA)/oligo(dT) as template/primer after 20 mins by scintillation counting analysis

[2] = test system: Human immunodeficiency virus 1; assay: Resistance index, ratio of EC50 for HIV-1 harboring reverse transcriptase Y181C mutant to EC50 for wild type HIV-1 NL4-3; assay type: functional
[3] = test system: Human immunodeficiency virus 1; assay: Antiviral activity against HIV-1 harboring reverse transcriptase K103N mutant infected in human MT4 cells assessed as inhibition of virus-induced cytopathic effect after 5 days by MTT assay; assay type: functional, organism-based; settings: Human immunodeficiency virus 1, MT4, 120 h
[4] = Therapeutic index, ratio of CC50 for human MT4 cells to EC50 for HIV-1 NL4-3 infected in human MT4 cells; assay type: toxicity, cell-based; settings: read-out: Ratio CC50/EC50
[5] = test system: Human immunodeficiency virus 1; assay: Resistance index, ratio of EC50 for HIV-1 harboring reverse transcriptase K103N mutant to EC50 for wild type HIV-1 NL4-3; assay type: functional
[6] = test system: Human immunodeficiency virus 1; assay: Resistance index, ratio of EC50 for HIV-1 harboring reverse transcriptase Y188L mutant to EC50 for wild type HIV-1 NL4-3; assay type: functional
[7] = molecular target: Human immunodeficiency virus type 1 reverse transcriptase (Human immunodeficiency virus 1) (UniProt Q72547)
Description: Inhibition of recombinant wild type HIV-1 His-tagged reverse transcriptase p66/p51 expressed in Escherichia coli assessed as reduction in [3H]dTTP incorporation using poly(rA)/oligo(dT) as template/primer after 20 mins by scintillation counting analysis

[8] = test system: Human immunodeficiency virus 1; assay: Antiviral activity against wild type HIV 1 NL4-3 infected in human MT4 cells assessed as inhibition of virus-induced cytopathic effect after 5 days by MTT assay; assay type: functional, organism-based; settings: Human immunodeficiency virus 1, NL4-3, MT4, 120 h
[9] = Cytotoxicity against human MT4 cells assessed as reduction in cell viability after 5 days by MTT assay; assay type: cell-based
[10] = test system: Human immunodeficiency virus 1; assay: Resistance index, ratio of EC50 for HIV-1 harboring reverse transcriptase K103N/Y181C double mutant to EC50 for wild type HIV-1 NL4-3; assay type: functional
[11] = test system: Human immunodeficiency virus 1; assay: Antiviral activity against HIV 1 harboring reverse transcriptase Y181C mutant infected in human MT4 cells assessed as inhibition of virus-induced cytopathic effect after 5 days by MTT assay; assay type: functional, organism-based; settings: Human immunodeficiency virus 1, MT4, 120 h
[12] = test system: Human immunodeficiency virus 1; assay: Resistance index, ratio of ID50 for recombinant HIV-1 His-tagged reverse transcriptase p66/p51 K103N mutant to ID50 for recombinant wild type HIV-1 reverse transcriptase His-tagged p66/p51
[13] = test system: Human immunodeficiency virus 1; assay: Antiviral activity against HIV-1 IRLL98 harboring reverse transcriptase M41L, D67N, Y181C, M184V, R211K, and T215Y mutants infected in human MT4 cells assessed as inhibition of virus-induced cytopathic effect after 5 days by MTT assay; assay type: functional, organism-based; settings: Human immunodeficiency virus 1, IRLL98, MT4, 120 h
[14] = test system: Human immunodeficiency virus 1; assay: Resistance index, ratio of EC50 for HIV-1 IRLL98 harboring reverse transcriptase M41L, D67N, Y181C, M184V, R211K, and T215Y mutants to EC50 for wild type HIV-1 NL4-3; assay type: functional
[15] = test system: Human immunodeficiency virus type 1 reverse transcriptase (Human immunodeficiency virus 1), Q72547 [L100I]
[16] = test system: Human immunodeficiency virus type 1 reverse transcriptase (Human immunodeficiency virus 1), Q72547 [Y181I]
[17] = test system: Human immunodeficiency virus 1; assay: Antiviral activity against HIV-1 harboring reverse transcriptase Y188L mutant infected in human MT4 cells assessed as inhibition of virus-induced cytopathic effect after 5 days by MTT assay; assay type: functional, organism-based; settings: Human immunodeficiency virus 1, MT4, 120 h
[18] = test system: Human immunodeficiency virus 1; assay: Resistance index, ratio of ID50 for recombinant HIV-1 His-tagged reverse transcriptase p66/p51 L100I mutant to ID50 for recombinant wild type HIV-1 reverse transcriptase His-tagged p66/p51
[19] = test system: Human immunodeficiency virus 1; assay: Resistance index, ratio of ID50 for recombinant HIV-1 His-tagged reverse transcriptase p66/p51 Y181I mutant to ID50 for recombinant wild type HIV-1 reverse transcriptase His-tagged p66/p51
[20] = test system: Human immunodeficiency virus 1; assay: Antiviral activity against HIV-1 harboring reverse transcriptase K103N/Y181C double mutant infected in human MT4 cells assessed as inhibition of virus-induced cytopathic effect after 5 days by MTT assay; assay type: functional, organism-based; settings: Human immunodeficiency virus 1, MT4, 120 h
[21] = test system: Human immunodeficiency virus 1; assay: Potency index, ratio of EFV EC50 to compound EC50 for HIV-1 harboring reverse transcriptase K103N/Y181C double mutant infected in human MT4 cells; assay type: functional
[22] = test system: Human immunodeficiency virus 1; assay: Potency index, ratio of EFV EC50 to compound EC50 for HIV-1 IRLL98 harboring reverse transcriptase M41L, D67N, Y181C, M184V, R211K, and T215Y mutants infected in human MT4 cells; assay type: functional
[23] = test system: Human immunodeficiency virus 1; assay: Potency index, ratio of TMC120 EC50 to compound EC50 for HIV-1 IRLL98 harboring reverse transcriptase M41L, D67N, Y181C, M184V, R211K, and T215Y mutants infected in human MT4 cells; assay type: functional

SMILES	ID50 [1] [nM]	Ratio EC50 [2]	EC50 [3] [nM]	selectivity ratio [4]	Ratio EC50 [5]	Ratio EC50 [6]	ID50 [7] [nM]	EC50 [8] [nM]	CC50 at 120 h [9] [nM]	Ratio EC50 [10]	EC50 [11] [nM]	Ratio [12]	EC50 [13] [nM]	Ratio EC50 [14]	ID50 [15] [nM]	ID50 [16] [nM]	EC50 [17] [nM]	Ratio [18]	Ratio [19]	EC50 [20] [nM]	also measured
Cc1cc(C#N)cc(C)c1Oc1nc(Nc2ccc(C#N)cc2)nc(N)c1Br [ETRAVIRINE]	85	18	2	7000	4	40	6	0.5	3500	38	9										
CCC(C)Sc1nc(C(OC)c2c(F)cccc2F)c(C)c(=O)[nH]1 (configuration not stated)	1500	41	1600	3020	178	311	3	9	27200		370	500	240	27	280	5400	2800	93	1800		
Cc1c(C(C)c2c(F)cccc2F)nc(NC2CCCC2)[nH]c1=O (configuration not stated)	380	9	410	3600	16	38	30	25	90000	17	220		85	3	500	1700	950	17	57	420	
COC(c1nc(NC(C)C)[nH]c(=O)c1C)c1c(F)cccc1F (configuration not stated)	620	10	230	> 5810	16	471	57	14	> 81400		140	11	70	5	1100	1900	6600	19	33		
CCC(C)Sc1nc(C(OC)c2c(F)cccc2Cl)c(C)c(=O)[nH]1 (configuration not stated)	12	135	1	264000	5	275	0.9	0.2	52800	140	27	13	0.6	3	120	640	55	133	711	28	Ratio EC50 [21]: 5 - 15; Ratio EC50 [22]: 2000 - 3000; Ratio EC50 [23]: 3 - 10
O=C1Nc2ccc(Cl)cc2[C@@](C#CC2CC2)(C(F)(F)F)O1 [EFAVIRENZ]			390						> 3000		44		630							400	
COC(c1nc(SC2CCCC2)[nH]c(=O)c1C)c1c(F)cccc1F (configuration not stated)	260	93	2800		97	110	14	29	34300		2700	19	840	29	910	570	3200	65	41		
CCC(C)Sc1nc(C(C)c2c(F)cccc2Cl)c(C)c(=O)[nH]1 (configuration not stated)				> 5000					> 1500	1367			95	317						410	
